Laboratory results as given in publication PMC9027131, “Dual PI3K/Akt Inhibitors Bearing Coumarin-Thiazolidine Pharmacophores as Potential Apoptosis Inducers in MCF-7 Cells” (Pharmaceuticals, 2022).

Legend:
caspase-9 = test: Cleaved caspase-9 level by ELISA in MCF-7 cells; assay type: cell-based, human; settings: MCF-7, 48 h; control 2.712 ± 0.09; means ± sd, n = 3
Procedure: Apoptosis is a programmed cell death modality that includes an array of steps such as activation of caspases alongside endonucleases leading to DNA cleavage, eventually causing the formation of apoptotic bodies. Caspases are classified into effector caspases, such as caspase-3, -6, and -7, and initiator caspases, including either caspase-2, -8, and -10 (extrinsic pathway) or caspase-9 (intrinsic pathway).
The level of cleaved caspase-9 was assessed in both untreated/control MCF-7 cells and following VIIb treatment using DRG® Caspase-9 (human) ELISA (EIA-4860), following the manufacturer’s instructions (DRG International Inc., Springfield, NJ, USA). The data were means ± sd; n = 3.

MCF-7 cells [1] = test: Annexin V-FITC/PI apoptosis assay by flow cytometry; assay type: cell-based, human
Description: Remarkably, clinical oncology aims at developing novel targeted cancer therapies that could induce apoptosis in neoplastic cells to enhance their eradication. Since loss of apoptosis is closely related to cancer cell survival and abnormal growth, induction of apoptotic signaling pathways is a crucial mechanism in targeted cancer therapy. To further explore the link between apoptosis rates and VIIb treatment, the pro-apoptotic activity of this novel compound was investigated by flow cytometry using both Annexin V (V) and propidium iodide (PI) dyes. A distinctive feature of early apoptosis is phosphatidylserine transfer toward the cellular surface. Thus, phosphatidylserine can be detected by fluorochrome-tagged anticoagulant protein V. Therefore, the viable cells remained unstained (V^−/PI^−).
Control untreated and MCF-7 cells treated with compound VIIb at its IC50 (µM) for 48 h were subjected to apoptotic analysis using Annexin V (V) and propidium iodide (PI) fluorescent dyes.
(§1) Cell cycle analysis and apoptosis rates following VIIb treatment were investigated using a Propidium Iodide Flow Cytometry Kit (ab139418; Abcam, Cambridge, UK) and Annexin V-FITC apoptosis kit (Catalog: K101-25; BioVision Research Products, San Francisco, CA, USA), respectively, following the manufacturer’s instructions as stated by a previous study.

[2] = system: MCF 10 non-tumorigenic epithelial cell line; test: MTT assay in non-cancerous epithelial cells (MCF 10); assay type: cell-based
Procedure: MCF-7 breast cancer cell line (ATCC® HTB-22™) plus non-tumorigenic epithelial cell line (MCF 10, ATCC® CRL-10317™) were supplied from VACSERA (Cairo, Egypt) and cultured in Dulbecco’s Modified Eagle Medium (Invitrogen-Life Technologies, Carlsbad, CA, USA) with 1% antibiotic solution (streptomycin–penicillin) plus 10% fetal bovine serum (Hyclone) in a 5% (v/v) humidified CO2 incubator at 37 °C.
Firstly, cells were kept in a humidified atmosphere (37 °C, 24 h), and then incubated with serial concentrations of the tested compounds. After 48 h, the medium was aspirated, and then cells were incubated with 5% MTT solution (M-5655; Sigma Aldrich, St. Louis, MO USA) (200 µL/well, 2 h), allowing the dye to metabolize into the colored insoluble formazan complex that was then dissolved in the appropriate solubilization solution (M-8910) (200 µL/well), for 30 min with gentle mixing at room temperature. The UV absorbance was measured using a microplate reader (570 nm), and cell viability was determined with respect to untreated control cells.

PI3K-α = target: T1, PI3K-α (Homo sapiens, UniProt P42336); test: PI3Kα (p110α/p85) enzyme inhibition assay kit; assay type: biochemical; settings: means ± sd, n = 3; read-out: IC50 (µM) PI3K-α Isoform
T1 construct: purchased BPS Bioscience, Inc 79781
Description: (§2) Accumulating evidence highlighted that PI3K signaling pathway upregulation is highly implicated in breast cancer development and disease progression as well as resistance to hormones and cytotoxic therapy. Therefore, it is essential to elucidate the effect of the novel compound, VIIb, on the PI3K/Akt signaling pathway by using in vitro PI3K class 1A enzyme inhibition assay conducted on PI3K-α and PI3K-γ isoforms as well as an Akt-1 enzyme inhibition assay. […] Furthermore, targeting the PI3K-γ isoform in breast cancer could contribute to enhancing the anti-tumor immunity.
(§3) The in vitro inhibition of PI3K and Akt kinase activities by VIIb was assessed using a PI3Kα (p110α/p85) assay kit (Catalog #79781; BPS Bioscience, Inc, San Diego, CA, USA), PI3Kγ (p110γ/PIK3R5) assay kit (Catalog #79803; BPS Bioscience, Inc, San Diego, CA, USA), and Akt Kinase Activity assay kit (ab139436; Abcam, Cambridge, UK) following the manufacturer’s instructions as described previously. The results were expressed as IC50 values using dose–response curves and linear regression equations.

MCF-7 cells [3] = test: Cell cycle analysis by flow cytometry (propidium iodide); assay type: cell-based, human; settings: MCF-7, treated at IC50, 48 h
Procedure: VIIb-treated cells were subjected to cell cycle phase distribution analysis as well as apoptosis rates determination by flow cytometric analysis in MCF-7 cells, as reported.
Control and VIIb-treated (IC50 µM, 48 h) MCF-7 cells were harvested and then subjected to cell cycle analysis by flow cytometry.
as §1

Akt-1 = target: T2, Akt-1 (Homo sapiens, UniProt P31749); test: Akt Kinase Activity assay kit; assay type: biochemical; settings: means ± sd, n = 3; read-out: IC50 (µM) Akt-1 Isoform
T2 construct: purchased Abcam ab139436
Description: as §2
as §3, with “equations. LY294002 compound was taken as the reference compound. The values were means ± sd; n = 3.” for “equations.”

[4] = MCF-7, with respect to control cells

T2 sequence (P31749 whole entry, species assumed, canonical isoform): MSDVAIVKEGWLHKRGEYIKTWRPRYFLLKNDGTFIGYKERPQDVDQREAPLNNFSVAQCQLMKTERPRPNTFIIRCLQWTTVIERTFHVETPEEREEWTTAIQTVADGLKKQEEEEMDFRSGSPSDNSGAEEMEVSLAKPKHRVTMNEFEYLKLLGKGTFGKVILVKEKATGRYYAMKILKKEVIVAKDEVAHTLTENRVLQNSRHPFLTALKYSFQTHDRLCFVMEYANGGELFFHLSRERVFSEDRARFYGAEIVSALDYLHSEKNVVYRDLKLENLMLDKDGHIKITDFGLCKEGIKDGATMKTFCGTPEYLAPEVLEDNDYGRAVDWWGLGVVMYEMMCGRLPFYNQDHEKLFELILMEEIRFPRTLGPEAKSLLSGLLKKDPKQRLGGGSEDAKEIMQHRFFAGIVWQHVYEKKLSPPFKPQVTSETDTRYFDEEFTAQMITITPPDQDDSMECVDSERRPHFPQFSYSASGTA
T1 sequence (P42336 whole entry, canonical isoform): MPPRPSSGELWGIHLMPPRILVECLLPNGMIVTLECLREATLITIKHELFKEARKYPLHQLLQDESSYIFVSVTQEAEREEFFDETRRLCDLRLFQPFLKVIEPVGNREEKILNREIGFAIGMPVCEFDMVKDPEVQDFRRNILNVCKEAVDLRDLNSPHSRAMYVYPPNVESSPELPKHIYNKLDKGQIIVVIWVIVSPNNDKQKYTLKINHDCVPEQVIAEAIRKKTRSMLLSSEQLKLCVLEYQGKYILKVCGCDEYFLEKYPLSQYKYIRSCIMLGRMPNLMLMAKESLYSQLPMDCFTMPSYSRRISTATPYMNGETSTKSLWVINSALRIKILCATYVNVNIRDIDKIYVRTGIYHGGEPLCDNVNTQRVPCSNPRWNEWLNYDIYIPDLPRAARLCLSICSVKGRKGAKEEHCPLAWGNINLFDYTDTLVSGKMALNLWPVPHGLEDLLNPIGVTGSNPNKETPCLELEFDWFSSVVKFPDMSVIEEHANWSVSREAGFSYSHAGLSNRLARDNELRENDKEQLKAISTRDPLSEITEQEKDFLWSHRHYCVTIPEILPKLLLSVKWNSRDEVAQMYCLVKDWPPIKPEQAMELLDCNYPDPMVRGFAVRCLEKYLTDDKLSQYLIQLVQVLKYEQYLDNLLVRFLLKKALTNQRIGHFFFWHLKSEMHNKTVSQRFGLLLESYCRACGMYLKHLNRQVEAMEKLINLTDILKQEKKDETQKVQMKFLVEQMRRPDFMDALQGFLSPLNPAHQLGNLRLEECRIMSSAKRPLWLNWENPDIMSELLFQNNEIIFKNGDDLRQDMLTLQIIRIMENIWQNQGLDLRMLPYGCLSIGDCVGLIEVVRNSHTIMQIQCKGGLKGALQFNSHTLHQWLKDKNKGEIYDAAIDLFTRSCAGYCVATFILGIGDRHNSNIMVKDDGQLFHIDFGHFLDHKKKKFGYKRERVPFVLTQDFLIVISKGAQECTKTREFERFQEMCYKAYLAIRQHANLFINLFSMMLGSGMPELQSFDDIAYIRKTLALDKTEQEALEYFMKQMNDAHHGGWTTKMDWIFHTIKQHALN
T1 sequence (P27986 whole entry partner, canonical isoform): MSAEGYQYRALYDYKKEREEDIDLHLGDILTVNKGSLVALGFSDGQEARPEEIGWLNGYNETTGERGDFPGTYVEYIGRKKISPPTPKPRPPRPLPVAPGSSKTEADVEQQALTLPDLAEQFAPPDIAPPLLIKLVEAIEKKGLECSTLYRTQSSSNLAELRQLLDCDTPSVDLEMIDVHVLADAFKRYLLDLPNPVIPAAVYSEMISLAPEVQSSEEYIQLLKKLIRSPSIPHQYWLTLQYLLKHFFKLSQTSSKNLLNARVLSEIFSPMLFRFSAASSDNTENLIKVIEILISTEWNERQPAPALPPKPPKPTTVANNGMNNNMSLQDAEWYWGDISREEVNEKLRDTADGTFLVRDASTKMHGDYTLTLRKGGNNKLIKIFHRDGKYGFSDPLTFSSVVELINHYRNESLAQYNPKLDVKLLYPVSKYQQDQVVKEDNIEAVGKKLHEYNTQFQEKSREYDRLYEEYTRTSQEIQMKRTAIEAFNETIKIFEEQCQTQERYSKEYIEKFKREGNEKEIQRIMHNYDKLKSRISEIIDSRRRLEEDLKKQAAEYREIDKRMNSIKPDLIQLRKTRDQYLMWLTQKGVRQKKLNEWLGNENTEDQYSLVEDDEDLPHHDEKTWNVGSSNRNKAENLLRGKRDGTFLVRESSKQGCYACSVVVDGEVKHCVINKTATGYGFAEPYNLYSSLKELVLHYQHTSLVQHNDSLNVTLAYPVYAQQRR

IC50 (PI3K-α): 3.7 ± 0.19 µM | IC50 (Akt-1): 2.93 ± 0.15 µM
SMILES: C/C(=N/N=C1/SCC(=O)N1C(=O)c1ccccc1)c1c(O)ccc2c(C)cc(=O)oc12 [VIIb]
Caspase-9 Level (caspase-9): 21.61 ± 0.14 ng/mL | Apoptosis % Late (V+/PI+) (MCF-7 cells [1]; MCF-7, treated at IC50, 48 h, control 0.17): 21.05% | Apoptosis % Early (V+/PI−) (MCF-7 cells [1]; MCF-7, treated at IC50, 48 h, control 0.48): 2.51% | Necrosis% (MCF-7 cells [1]; MCF-7, treated at IC50, 48 h, control 0.90): 11.69% | Apoptosis % Total (MCF-7 cells [1]; MCF-7, treated at IC50, 48 h, control 1.55): 35.25% | fold increase in early apoptotic cells (MCF-7 cells [1]; [4]): 5 fold | fold increase in late apoptotic cells (MCF-7 cells [1]; [4]): 100 fold | IC50 ([2]; Homo sapiens, MCF10, MTT assay, non-cancerous epithelial cells, means ± sd, n = 3): 9.52 ± 0.6 µM | Selectivity Index MCF-10/MCF-7 ([2]; ratio of IC50 MCF-10 to IC50 MCF-7): 9.24 | DNA Content % Pre G1 (MCF-7 cells [3]; control 1.55): 35.25% | DNA Content % G2/M (MCF-7 cells [3]; control 9.71): 5.59% | DNA Content % S (MCF-7 cells [3]; control 36.58): 46.02% | DNA Content % G0/G1 (MCF-7 cells [3]; control 53.71): 48.39%
